Test results reported in the NIST ThermoML archive (doi:10.1021/je049672l).
Several values for one entry are separate records, joined by “and”; a condition that tells them apart may be missing. Equal entries are not always repeated. ± gives the expanded uncertainty stated by the source.

Details: for mass density: Vibrating tube method; for vapor or sublimation pressure: Closed cell (Static) method

CCCC [butane]
Fluid (supercritical or subcritical phases)
Details | mass density [kg/m3]
240 K, 486 kPa | 635.96 ± 0.26
240 K, 1007.3 kPa | 636.47 ± 0.26
240 K, 1510.1 kPa | 636.95 ± 0.27
240 K, 2000.1 kPa | 637.42 ± 0.27
240 K, 2570.2 kPa | 637.97 ± 0.28
240 K, 3029.5 kPa | 638.41 ± 0.28
240 K, 3512.2 kPa | 638.87 ± 0.28
240 K, 4001.2 kPa | 639.35 ± 0.29
240 K, 4487.8 kPa | 639.8 ± 0.29
240 K, 5029 kPa | 640.31 ± 0.3
240 K, 5540.8 kPa | 640.78 ± 0.3
240 K, 5990.8 kPa | 641.21 ± 0.31
240 K, 6517.3 kPa | 641.67 ± 0.31
240 K, 7115.6 kPa | 642.22 ± 0.32
260 K, 481 kPa | 615.74 ± 0.26
260 K, 998.4 kPa | 616.36 ± 0.27
260 K, 1521.8 kPa | 616.98 ± 0.27
260 K, 2020.3 kPa | 617.55 ± 0.28
260 K, 2488.3 kPa | 618.09 ± 0.28
260 K, 3039.4 kPa | 618.72 ± 0.29
260 K, 3506.9 kPa | 619.26 ± 0.29
260 K, 3997 kPa | 619.8 ± 0.29
260 K, 4494.6 kPa | 620.36 ± 0.3
260 K, 5004.2 kPa | 620.91 ± 0.3
260 K, 5503.1 kPa | 621.46 ± 0.31
260 K, 6003.3 kPa | 622.01 ± 0.31
260 K, 6478.7 kPa | 622.54 ± 0.32
260 K, 6989.2 kPa | 623.08 ± 0.32
280 K, 144.7 kPa | 593.92 ± 0.27
280 K, 173.2 kPa | 593.97 ± 0.27
280 K, 493.9 kPa | 594.44 ± 0.27
280 K, 992 kPa | 595.16 ± 0.27
280 K, 1472.7 kPa | 595.86 ± 0.28
280 K, 1987.6 kPa | 596.59 ± 0.28
280 K, 2465.8 kPa | 597.26 ± 0.29
280 K, 2985.5 kPa | 597.98 ± 0.29
280 K, 3516.7 kPa | 598.71 ± 0.3
280 K, 3974.9 kPa | 599.34 ± 0.3
280 K, 4513.6 kPa | 600.07 ± 0.31
280 K, 4975 kPa | 600.69 ± 0.31
280 K, 5428.9 kPa | 601.3 ± 0.32
280 K, 5929.2 kPa | 601.98 ± 0.32
280 K, 6499.1 kPa | 602.71 ± 0.33
280 K, 7020 kPa | 603.37 ± 0.33
300 K, 268.9 kPa | 571.14 ± 0.27
300 K, 315.1 kPa | 571.23 ± 0.27
300 K, 493.4 kPa | 571.55 ± 0.27
300 K, 992.8 kPa | 572.45 ± 0.28
300 K, 1491.3 kPa | 573.35 ± 0.28
300 K, 2013.4 kPa | 574.26 ± 0.29
300 K, 2499.1 kPa | 575.12 ± 0.29
300 K, 2964 kPa | 575.92 ± 0.3
300 K, 3499.9 kPa | 576.83 ± 0.31
300 K, 3992.8 kPa | 577.66 ± 0.31
300 K, 4525.1 kPa | 578.55 ± 0.32
300 K, 4990.4 kPa | 579.31 ± 0.32
300 K, 5543.6 kPa | 580.23 ± 0.33
300 K, 5951.1 kPa | 580.88 ± 0.33
300 K, 6459.3 kPa | 581.65 ± 0.34
300 K, 7089.3 kPa | 582.62 ± 0.34
320 K, 515.9 kPa | 546.74 ± 0.28
320 K, 1002.9 kPa | 547.89 ± 0.29
320 K, 1502.7 kPa | 549.06 ± 0.29
320 K, 2011.8 kPa | 550.22 ± 0.3
320 K, 2517.1 kPa | 551.36 ± 0.3
320 K, 3010.6 kPa | 552.45 ± 0.31
320 K, 3523.1 kPa | 553.55 ± 0.31
320 K, 4015.6 kPa | 554.6 ± 0.32
320 K, 4017.2 kPa | 554.6 ± 0.32
320 K, 4513.3 kPa | 555.64 ± 0.33
320 K, 4992.8 kPa | 556.63 ± 0.33
320 K, 5473.8 kPa | 557.6 ± 0.34
320 K, 6031 kPa | 558.74 ± 0.34
320 K, 6510.5 kPa | 559.67 ± 0.35
320 K, 6982.1 kPa | 560.62 ± 0.35
340 K, 761.5 kPa | 519.87 ± 0.29
340 K, 791.7 kPa | 519.97 ± 0.29
340 K, 989.9 kPa | 520.64 ± 0.29
340 K, 1519.5 kPa | 522.33 ± 0.3
340 K, 1975.7 kPa | 523.74 ± 0.31
340 K, 2514.4 kPa | 525.36 ± 0.31
340 K, 3012.7 kPa | 526.82 ± 0.32
340 K, 3504.4 kPa | 528.23 ± 0.32
340 K, 4034.7 kPa | 529.7 ± 0.33
340 K, 4437.7 kPa | 530.79 ± 0.33
340 K, 4964.4 kPa | 532.19 ± 0.34
340 K, 5471 kPa | 533.51 ± 0.35
340 K, 5975.4 kPa | 534.78 ± 0.35
340 K, 6451.2 kPa | 535.97 ± 0.36
340 K, 7014.5 kPa | 537.36 ± 0.37
360 K, 1181.7 kPa | 490.31 ± 0.3
360 K, 1215.8 kPa | 490.48 ± 0.3
360 K, 1507.5 kPa | 491.85 ± 0.3
360 K, 2006.4 kPa | 494.12 ± 0.31
360 K, 2493.7 kPa | 496.23 ± 0.32
360 K, 2995.1 kPa | 498.32 ± 0.33
360 K, 3489.7 kPa | 500.29 ± 0.33
360 K, 3993.1 kPa | 502.23 ± 0.34
360 K, 4488.7 kPa | 504.06 ± 0.35
360 K, 4984.1 kPa | 505.83 ± 0.35
360 K, 5504.8 kPa | 507.65 ± 0.36
360 K, 5979.4 kPa | 509.32 ± 0.37
360 K, 6486.7 kPa | 510.96 ± 0.37
360 K, 7012.4 kPa | 512.64 ± 0.38
380 K, 1845.2 kPa | 455.88 ± 0.3
380 K, 1925.7 kPa | 456.51 ± 0.3
380 K, 2007.2 kPa | 457.14 ± 0.3
380 K, 2503.7 kPa | 460.77 ± 0.31
380 K, 3010.6 kPa | 464.17 ± 0.31
380 K, 3502 kPa | 467.25 ± 0.32
380 K, 3999.9 kPa | 470.18 ± 0.33
380 K, 4508.9 kPa | 473 ± 0.34
380 K, 5015.7 kPa | 475.66 ± 0.35
380 K, 5511.1 kPa | 478.12 ± 0.35
380 K, 6013.8 kPa | 480.51 ± 0.36
380 K, 6534.9 kPa | 482.88 ± 0.37
380 K, 6978 kPa | 484.82 ± 0.38

Liquid
Details | mass density | vapor or sublimation pressure
240 K | 634.72 ± 0.26 kg/m3 and 634.79 ± 0.26 kg/m3 | 26.2 ± 2 kPa and 23.9 ± 0.5 kPa
260 K | 615.48 ± 0.26 kg/m3 | 59.9 ± 0.5 kPa
280 K | 593.89 ± 0.27 kg/m3 | 131.5 ± 0.6 kPa
300 K | 571.03 ± 0.27 kg/m3 | 256.4 ± 0.6 kPa
320 K | 546.56 ± 0.28 kg/m3 | 454.8 ± 0.8 kPa
340 K | 520.07 ± 0.29 kg/m3 and 519.84 ± 0.29 kg/m3 | 750.5 ± 1.2 kPa and 751 ± 1.2 kPa
360 K | 490.27 ± 0.29 kg/m3 and 490.24 ± 0.29 kg/m3 | 1168.5 ± 1.8 kPa and 1168.1 ± 1.8 kPa
380 K | 455 ± 0.28 kg/m3 | 1737.4 ± 2.7 kPa
